# According to patent EP4371976B1, “IONIZABLE LIPIDS AND LIPID NANOPARTICLES CONTAINING THEREOF” (Certest Biotec, S.L., priority 2022, dated 2024):
# “And” between values parts separate entries of the source, which are not always exact repeats. Equal values may be shown once.
# Experiments:
# [1] = Apparent pKa of LNPs comprising the ionizable lipid (Table 6); conditions: standard formulation 50:10:38.5:1.5
# [2] = RNA encapsulation efficiency of LNPs by Quant-IT Ribogreen; type: physicochemical; conditions: for Encaps. efficiency (%): LNPs with luciferase mRNA, ionizable lipid:non-cationic lipid:sterol:PEG-modified lipid 50:10:38.5:1.5, percentage of RNA entrapped in the LNP
# Method: The mRNA aqueous solution was then carefully added to the ethanol solution, and the resulted solution was homogenized by pipetting up and down for 4-5 times. The resulting LNPs were immediately diluted 1:1 with Tris buffer and dialyzed overnight against Tris buffer containing 15% sucrose. The resulting LNP solution was then collected, and the encapsulated mRNA was assessed by Quant-IT® Ribogreen (Invitrogen R11490) following the manufacturer's instructions.
# (§1) The LNP solution was then adjusted to a final concentration of mRNA of 100 µg/ml. Size distribution, polydispersity and Z-potential were measured by dynamic light scattering (DLS) using Malvern Zetasizer Advance Lab Blue Label. RNA encapsulation was assessed by Quant-IT® Ribogreen following the manufacturer's instructions.
# [3] = Size distribution, polydispersity and Z-potential of LNPs by dynamic light scattering (Malvern Zetasizer); type: physicochemical; conditions: LNPs, standard formulation 50:10:38.5:1.5; DLS
# Method: as §1
Compound,Apparent pKa [1],Encaps. efficiency (%) [2] [%],P.D.I. [3],Particle size/ Ø (nm) [3] [nm],Z Potential (± D.E.) [mV] [3] [mV],"Encaps. efficiency ([2]; Table 8, LNP 50:10:38.5:1.5, luciferase mRNA)"
CCCCCCCCCCCCCCOC(=O)CCSCCC(NC(=O)C(CCCCCC)CCCCCCCC)C(=O)NCCN(CC)CC (centres unmarked) [VC-LC-0478],6.82,65.16,0.17,156.2,-7.01,–
CCCCCCCCCCCCCCOC(=O)CCSCCC(C(=O)NC1CCN(C)CC1)C(=O)OC(CCCCCCCC)CCCCCCCC (centres unmarked) [VC-LC-0444],6.28,85.85,0.07,185.7,-3.35,–
CCCCCCCC/C=C\CCCCCCCC(=O)NC(CCSCC(=O)OCCCCCCCCCCCCC)C(=O)NCCCN1CCOCC1 (centres unmarked) [VC-LC-0338],6.64,62.80,0.14,146.3,-5.38,–
CCCCCCCCC(CCCCCC)COC(=O)CCSCC(CC(=O)NC1CCN(C)CC1)C(=O)OCC(CCCCCC)CCCCCCCC (centres unmarked) [VC-LC-0525],6.67,59.89,0.18,151,-5.11,59.9% and 95.6%
CCCCCCCCCCCCCCCCCC(=O)NC(CCSCCC(=O)OCC(CCCCCC)CCCCCCCC)C(=O)NC1CCN(C)CC1 (centres unmarked) [VC-LC-0433],7.75,96.77,0.13,180.8,4.87,–
CCCCCCCCC(CCCCCCCC)OC(=O)C(CCSCCC(=O)OCC(CC)CCCC)C(=O)NCCCn1ccnc1 (centres unmarked) [VC-LC-0365],6.33,66.86,0.24,124.1,-17.43,–
CCCCCCCCCCCCC(CCCCCCCCCC)COC(=O)CCSCCC(NC(=O)C(CCCCCC)CCCCCCCC)C(=O)NCCN1CCOCC1 (centres unmarked) [VC-LC-0407],4.66,60.22,0.1,167.1,-12.36,–
CCCCCCCCCCCCOC(=O)CCSCCC(NC(=O)C(CCCCCC)CCCCCCCC)C(=O)NCCN(CC)CC (centres unmarked) [VC-LC-0477],6.65,57.43,0.15,146.7,-9.55,–
CCCCCCCCCCC(CCCCCCCC)C(=O)NC(CCSCCC(=O)OCC(CC)CCCC)C(=O)NC1CCN(C)CC1 (centres unmarked) [VC-LC-0559],6.40,65.25,0.14,138.8,-5.71,–
CCCCCCCCC(CCCCCC)C(=O)NC(CCSCCC(=O)OCC(CC)CCCC)C(=O)NCCN1CCN(C)CC1 (centres unmarked) [VC-LC-0181],–,85.48,0.35,206.7,-6.47,–
CCCCCCCC/C=C\CCCCCCCC(=O)NC(CCSCCC(=O)OCCCCCCCCCCCC)C(=O)NC1CCN(C)CC1 (centres unmarked) [VC-LC-0326],–,99.06,0.25,181.9,7.00,–
CCCCCCCCCCCCCOC(=O)CCSCC(CC(=O)NCCCn1ccnc1)C(=O)OC(CCCCCCCC)CCCCCCCC (centres unmarked) [VC-LC-0294],–,65.74,0.09,160.7,-10.37,–
CCCCCCCCCCCCCCCCCCOC(=O)CCSCCC(C(=O)NCCCn1ccnc1)C(=O)OC(CCCCCCCC)CCCCCCCC (centres unmarked) [VC-LC-0368],–,89.08,0.1,140.9,-15.81,–
CCCCCCCC#CCOC(=O)CCSCCC(NC(=O)CCCCCCCCCCCCCCCCC)C(=O)NC1CCN(C)CC1 (centres unmarked) [VC-LC-0437],–,99.92,0.23,152,7.76,–
CCCCCCCCC(CCCCCC)C(=O)NC(CCSCCC(=O)OCCCCCC(C)C)C(=O)NCCCN1CCOCC1 (centres unmarked) [VC-LC-0171],–,53.65,0.24,228.8,-23.07,–
CCCCCCCCCCCCCCCCOC(=O)CCSCCC(NC(=O)C(CCCCCC)CCCCCCCC)C(=O)NCCCN1CCOCC1 (centres unmarked) [VC-LC-0170],–,56.36,–,266.4,-22.79,–
CCCCCCCCCCCCOC(=O)CCSCCC(C(=O)NCCCN1CCOCC1)C(=O)OCC(CCCCCC)CCCCCCCC (centres unmarked) [VC-LC-0609],–,54.21,0.16,168.6,-20.42,–
CCCCCCCCC(CCCCCC)C(=O)NC(CCSCCC(=O)OCCCCCC(C)C)C(=O)NC1CCN(C)CC1 (centres unmarked) [VC-LC-0217],–,72.79,0.14,156.7,-2.41,–
CCCCCCCCC(CCCCCC)C(=O)NC(CCSCCC(=O)OCC(CC)CCCC)C(=O)NCCCN(CCO)CCO (centres unmarked) [VC-LC-0197],–,90.54,0.22,262.2,1.39,–
CCCCCCCCC(CCCCCC)C(=O)NC(CCSCCC(=O)OCCCCCC)C(=O)NCCCN(CCO)CCO (centres unmarked) [VC-LC-0206],–,82.26,0.17,179.9,-2.86,–
CCCCCCCCOC(=O)CCSCCC(NC(=O)C(CCCCCC)CCCCCCCC)C(=O)NCCN1CCN(C)CC1 (centres unmarked) [VC-LC-0191],–,87.02,0.11,135.2,4.77,–
CCCCCCCCCCCCOC(=O)CCSCC(CC(=O)NC1CCN(C)CC1)C(=O)OCC(CCCCCC)CCCCCCCC (centres unmarked) [VC-LC-0528],–,98.83,0.2,137.4,4.55,–
CCCCCCCCC(CCCCCC)C(=O)NC(CCSCCC(=O)OCC(CC)CCCC)C(=O)NCCCN1CCCC1 (centres unmarked) [VC-LC-0244],–,53.57,0.16,175,1.09,–
CCCCCCCCC(CCCCCC)C(=O)NC(CCSCCC(=O)OCCCCCCCC(C)C)C(=O)NC1CCN(C)CC1 (centres unmarked) [VC-LC-0211],–,67.87,0.14,181,-4.59,–
CCCCCCCCCCCCCOC(=O)CCSCC(CC(=O)NC1CCN(C)CC1)C(=O)OCC(CCCCCC)CCCCCCCC (centres unmarked) [VC-LC-0524],–,97.01,0.15,129.9,3.83,–
CCCCCCCCCCCCCCCCCCOC(=O)CCSCCC(NC(=O)CCCCCCCCCCCCCCCCC)C(=O)NCCCN1CCOCC1 (centres unmarked) [VC-LC-0380],–,71.74,0.25,170.6,-17.08,–
CCCCCCCCCCCCOC(=O)CCSCCC(NC(=O)C(CCCCCC)CCCCCCCC)C(=O)NCCCN(C)C (centres unmarked) [VC-LC-0103],–,100.00,–,–,0.00,–
CCCCCCCCC(CCCCCC)C(=O)NC(CCSCCC(=O)OCCCCCCCC(C)C)C(=O)NCCN1CCN(C)CC1 (centres unmarked) [VC-LC-0180],–,87.95,0.19,197.5,-4.28,–
